According to patent US6093714A, “Tricyclic benzazepine compounds” (priority 1995, dated 2000):
Structures can show the parent of a compound that is named as a salt. Where two headings read alike, the source gives them in different places.

Key:
intraperitoneal cells = experiment: Histamine release reaction inhibition test (rat intraperitoneal cells, DNP-As antigen); format: cell-based, Wistar male rat; conditions: 10^-5 to 10^-10 M test compound, DNP-As stimulated intraperitoneal cells, 10^5 cells/ml, read-out: IC50 (dose of the test compound required for inhibiting the histamine release reaction by 50%)
Procedure: Histamine release reaction inhibition test
(1) Preparation of antiserum
Rat anti-dinitrophenylated ascaris protein (hereinafter referred to as "DNP-As") serum was prepared according to the method established by Tada et al. (Tada, T. and Okumura, K., J. Immun. 106(4), 1971). Specifically, 1010 organisms of Bordetella pertussis and 1 mg of DNP-As were intramuscularly administered to the foot pad of the limbs of Brown norway male rats weighing 200 g, and, five days after the administration, 0.5 mg of DNP-As was intramuscularly administered to the back. Three days after that, blood was collected to prepare an antiserum. The titer of the antiserum was determined by using a 48-hr passive cutaneous anaphylaxis reaction using a rat and found to be 1:1000 to 1:2000.
(2) Induction of histamine release reaction and release reaction inhibitory activity
The above serum was diluted four times with physiological brine, and 1 ml of the diluted serum was intraperitoneally administered to a Wistar male rat. Two days after the administration, the abdominal cavity was washed with phosphate buffer, and intraperitoneal cells were collected. The cells were adjusted to 10^5 cells/ml and stimulated with 1 pg/ml DNP-As, and the amount of the histamine released on the supernatant was measured by the method established by Shore et al (Shore, P. A., Burkhalter, A. H. and Chon Jr. V. H. J. Pharm. Exp. Ther., 127 , 182-186 (1959)).
The amount of the released histamine treated with 10^-5 to 10^-10 M test compound was compared with that of non-treated group. The dose of the test compound required for inhibiting the histamine release reaction by 50% (IC50) was calculated based on the percentage inhibition. IC50 of sodium cromoglicate was used as a control.

[1] = test system: allergic foot-pad edema reaction; experiment: Immediate and late phase allergic response inhibition test (allergic foot-pad edema reaction); format: in vivo, Wister male rats; conditions: Rattus norvegicus, po, 20 mg/kg orally, 10 min before induction
Procedure: Immediate and late phase allergic response inhibition test
Wister male rats weighing of 200 g were provided. 1010 organisms of Bordetella pertussis and 1 mg of dinitrophenylated ovalbumin (hereinafter abbreviated to "DNP-OA") were intramuscularly administered into the foot pad of the limbs of the rats except for the right hind leg. Further, ten days after the administration, 5 pg/site DNP-OA was subcutaneously administered to the right hind leg to induce allergic foot-pad edema reaction. The inhibitory activity of the test compounds was determined in such a manner that the volume of edema 30 min after the induction of the allergic reaction was regarded as an immediate phase allergic response and the volume of edema 8 hr after the induction of the allergic reaction was regarded as a late phase allergic response. Each test compound was dissolved or suspended in a 0.25% Tween 80 solution, and the solution or suspension was orally administered at a dose of 20 mg/kg 10 min before the induction of the allergic reaction.
Only the 0.25% Tween 80 solution was administered to the control group of rats not treated with any test compound, and 100 mg/kg sodium cromoglicate was subcutaneously or orally administered to the positive control group of rats.
The percentage inhibition of the allergic foot-pad edema reaction was determined by the following equation.
Percentage inhibition of allergic foot-pad edema reaction=(A-B)/A×100
wherein A: average edema volume for the non-treated control group of rats; and
B: average edema volume for the group of rats with the test compound administered.

[2] = 0.5 h, edema 30 min after induction, read-out: Inhibition (%) Immediate phase response
[3] = edema 8 hr after induction, read-out: Inhibition (%) Late phase response

IC50 (intraperitoneal cells) | SMILES | inhibition in vivo at 20 mg/kg [1, 2] | inhibition in vivo at 20 mg/kg [1, 3]
6 nM | O=C(/C=C/c1ccc2c(=O)c3[nH]nnc3c(=O)[nH]c2c1)Nc1ccccc1C(=O)O [Example 1, 7-(2-(N-(2-Carboxyphenyl)carbamoyl)-(E)-ethenyl)-4(5H),10-dioxo-1H-1,2,3-triazolo[4,5-c][1]benzazepine] |  | 
4.4 nM | O=C(CCc1ccc2c(=O)c3[nH]nnc3c(=O)[nH]c2c1)NCc1ccccn1 [Example 2, 4(5H),10-dioxo-7-(2-(N-(2-pyridyl)methyl)carbamoyl)ethyl-1H-1,2,3-triazolo[4,5-c][1]benzazepine] | 57% | 43%
4.6 nM | CN(Cc1ccccn1)C(=O)CCc1ccc2c(=O)c3[nH]nnc3c(=O)[nH]c2c1 [Example 3, 4(5H),10-dioxo-7-(2-(N-methyl-N-(2-pyridyl)methyl)carbamoyl)ethyl-1H-1,2,3-triazolo[4,5-c][1]benzazepine] | 44% | 14%
13 nM | CCN(Cc1ccccn1)C(=O)CCc1ccc2c(=O)c3[nH]nnc3c(=O)[nH]c2c1 [Example 4, 7-(2-(N-Ethyl-N-(2-pyridyl)methyl)carbamoyl)ethyl-4(5H),10-dioxo-1H-1,2,3-triazolo[4,5-c][1]benzazepine] | 48% | 21%
2.9 nM | O=C(CCc1ccc2c(=O)c3[nH]nnc3c(=O)[nH]c2c1)N(Cc1ccccn1)Cc1ccccn1 [Example 5, 4(5H ),10-Dioxo-7-(2-(N,N-bis(2-pyridylmethyl))carbamoyl)ethyl-1H-1,2,3-triazolo[4,5-c][1]benzazepine] | 40% | 43%
4.5 nM | O=C(CCc1ccc2c(=O)c3[nH]nnc3c(=O)[nH]c2c1)N1CCc2ccccc2C1 [Example 6, 7-(2-(1,2,3,4-Tetrahydro-2-isoquinolyl)carbonylethyl)-4(5H),10-dioxo-1H-1,2,3-triazolo[4,5-c][1]benzazepine] | 19% | 29%
12 nM | COC(=O)c1cc2c(s1)CCN(C(=O)CCc1ccc3c(=O)c4[nH]nnc4c(=O)[nH]c3c1)C2 [Example 7, 7-(2-(2-Methoxycarbonyl-4,5,6,7-tetrahydrothieno[3,2-c]pyridin-5-yl)carbonylethyl)-4(5H),10-dioxo-1H-1,2,3-triazolo[4,5-c][1]benzazepine] | 20% | -3%
9.5 nM | CN1CCN(C(=O)CCc2ccc3c(=O)c4[nH]nnc4c(=O)[nH]c3c2)CC1 [Example 8, 7-(2-(4-Methylpiperazin-1-yl)carbonylethyl)-4(5H),10-dioxo-1H-1,2,3-triazolo[4,5-c][1]benzazepine] | 42% | 20%
3.9 nM | O=C(CCc1ccc2c(=O)c3[nH]nnc3c(=O)[nH]c2c1)Nc1ccncc1 [Example 9, 7-(2-(N-(4-Pyridylamino))carbamoyl)ethyl-4(5H),10-dioxo-1H-1,2,3-triazolo[4,5-c][1]benzazepine] | 30% | 33%
2.4 nM | O=c1[nH]c2cc(/C=C/c3ccncc3)ccc2c(=O)c2[nH]nnc12 [Example 10, 4(5H),10-Dioxo-7-(2-(4-pyridyl)-(E)-ethenyl)-1H-1,2,3-triazolo[4,5-c][1]benzazepine trifluoroacetate] | 44% | 59%
1.8 nM | O=c1[nH]c2cc(/C=C/c3ccccn3)ccc2c(=O)c2[nH]nnc12 [Example 11, 4(5H),10-Dioxo-7-(2-(2-pyridyl)-(E)-ethenyl)-1H-1,2,3-triazolo[4,5-c][1]benzazepine trifluoroacetate] |  | 
3.6 nM | O=c1[nH]c2cc(OCCCN3CCOCC3)ccc2c(=O)c2[nH]nnc12 [Example 12, 7-(3-Morpholinopropoxy)-4(5H),10-dioxo-1H-1,2,3-triazolo[4,5-c][1]benzazepine trifluoroacetate] | 46% | 42%
11 nM | CN1CCN(CCCOc2ccc3c(=O)c4[nH]nnc4c(=O)[nH]c3c2)CC1 [Example 13, 7-(3-(4-Methyl-1-piperazino)propoxy)-4(5H),10-dioxo-1H-1,2,3-triazolo[4,5-c][1]benzazepine ditrifluoroacetate] | 28% | 28%
11 nM | O=c1[nH]c2cc(OCCCN3CCC(Cc4ccccc4)CC3)ccc2c(=O)c2[nH]nnc12 [Example 14, 7-(3-(4-Benzylpiperidino)propoxy)-4(5H),10-dioxo-1H-1,2,3-triazolo[4,5-c][1]benzazepine trifluoroacetate] | 32% | 15%
9.9 nM | CCN(Cc1ccccn1)C(=O)COc1ccc2c(=O)c3[nH]nnc3c(=O)[nH]c2c1 [Example 15, 7-(N-Ethyl-N-(2-pyridylmethyl)carbamoylmethyloxy)-4(5H),10-dioxo-1H-1,2,3-triazolo[4,5-c][1]benzazepine trifluoroacetate] | 34% | 25%
2.8 nM | O=C(COc1ccc2c(=O)c3[nH]nnc3c(=O)[nH]c2c1)NCc1ccccn1 [Example 16, 4(5H ),10-Dioxo-7-(N-(2-pyridylmethyl)carbamoylmethyloxy)-1H-1,2,3-triazolo[4,5-c][1]benzazepine trifluoroacetate] | 48% | 35%
4.1 nM | Cc1ccc(C(=O)Oc2ccc3c(=O)c4[nH]nnc4c(=O)[nH]c3c2)cc1 [Example 17, 4(5H),10-Dioxo-7-(4-toluoyloxy)-1H-1,2,3-triazolo[4,5-c][1]benzazepine] | 44% | 24%
6.2 nM | O=C(COc1ccc2c(=O)c3[nH]nnc3c(=O)[nH]c2c1)N(Cc1ccccn1)Cc1ccccn1 [Example 18, 7-(N,N-Bis(2-pyridylmethyl)carbamoylmethyloxy)-4(5H),10-dioxo-1H-1,2,3-triazolo[4,5-c][1]benzazepine ditrifluoroacetate] | 40% | 5%
4.6 nM | CC(=O)Nc1ccc2c(=O)c3[nH]nnc3c(=O)[nH]c2c1 [Example 21, 7-Acetylamino-4(5H),10-dioxo-1H-1,2,3-triazolo[4,5-c][1]benzazepine] | 43% | 26%
10 nM | COc1ccc(C(=O)COc2cc3c(=O)c4[nH]nnc4c(=O)[nH]c3cc2C)cc1 [Example 27, 8-(4-Methoxyphenacyloxy)-7-methyl-4(5H),10-dioxo-1H-1,2,3-triazolo[4,5-c][1]benzazepine] |  | 
31 nM | Cc1cc(C)c2[nH]c(=O)c3nn[nH]c3c(=O)c2c1 [Example 29, 6,8-Dimethyl-4(5H),10-dioxo-1H-1,2,3-triazolo[4,5-c][1]benzazepine] |  | 
2 nM | O=c1[nH]c2cc(C=Cc3cccnc3)ccc2c(=O)c2[nH]nnc12 [Example 31, 4(5H),10-Dioxo-7-(2-(3-pyridyl)ethenyl)-1H-1,2,3-triazolo[4,5-c][1]benzazepine trifluoroacetate (E:Z=1:2)] |  | 
0.4 nM | O=c1[nH]c2cc(/C=C/c3ccc4ccccc4n3)ccc2c(=O)c2[nH]nnc12 [Example 33, 4(5H),10-Dioxo-7-(2-(2-quinolyl)-(E)-ethenyl)-1H-1,2,3-triazolo[4,5-c][1]benzazepine trifluoroacetate] |  | 

SMILES | IC50 (intraperitoneal cells) | inhibition in vivo at 20 mg/kg [1, 2] | inhibition in vivo at 20 mg/kg [1, 3]
O=C(Nc1ccc2c(=O)c3[nH]nnc3c(=O)[nH]c2c1)c1ccc(OCCCCc2ccccc2)cc1 [Example 22, 4(5H),10-Dioxo-7-(4-phenylbutoxybenzoylamino)-1H-1,2,3-triazolo[4,5-c][1]benzazepine] | 8.1 nM | 40% | 41%
